Results reported in paper PMC3003262 (Drug development research, 2010).
Like-named read-outs stand apart in the source and are kept apart here.

Columns and labels:
[1] = target: T1, human CB1 F268W mutant receptor (Homo sapiens, UniProt P21554, F268W); experiment: biochemical; format: binding; details: for loss in affinity relative to wild-type receptor: F268W receptor vs WT
[2] = target: T2, human CB1 wild-type (WT) receptor (Homo sapiens, UniProt P21554); experiment: Competition binding with [3H]SR141716A, wild-type CB1 membranes
[3] = target: T3, human CB1 P269A mutant receptor (Homo sapiens, UniProt P21554, P269A); experiment: biochemical; format: binding
[4] = target: human CB1 H270A mutant receptor (Homo sapiens, UniProt P21554, H270A); experiment: biochemical; format: binding
[5] = target: T4, human CB1 I271A mutant receptor (Homo sapiens, UniProt P21554, I271A); experiment: biochemical; format: binding; details: for loss in affinity relative to wild-type receptor: I271A receptor vs WT
[6] = target: T4, human CB1 I271A mutant receptor; details: cited from earlier work
[7] = target: T2, human CB1 wild-type (WT) receptor; details: cited from earlier work
[8] = target: T1, human CB1 F268W mutant receptor; details: cited from earlier work
[9] = target: T3, human CB1 P269A mutant receptor; details: cited from earlier work

Sequence of human CB1 H270A mutant receptor (P21554 whole entry H270A): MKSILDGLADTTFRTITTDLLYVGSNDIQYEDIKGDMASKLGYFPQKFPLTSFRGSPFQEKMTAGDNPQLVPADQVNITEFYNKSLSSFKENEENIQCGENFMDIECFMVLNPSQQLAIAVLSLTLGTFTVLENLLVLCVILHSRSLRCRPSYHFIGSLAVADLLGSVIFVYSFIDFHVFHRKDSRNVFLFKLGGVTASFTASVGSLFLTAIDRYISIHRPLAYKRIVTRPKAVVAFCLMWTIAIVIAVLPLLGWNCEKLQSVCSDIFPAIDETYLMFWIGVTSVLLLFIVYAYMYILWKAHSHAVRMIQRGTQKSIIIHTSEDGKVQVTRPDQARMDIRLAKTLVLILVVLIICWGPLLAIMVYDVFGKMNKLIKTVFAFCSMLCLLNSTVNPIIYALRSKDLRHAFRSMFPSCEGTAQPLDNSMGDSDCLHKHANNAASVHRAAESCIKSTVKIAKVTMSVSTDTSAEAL
T4 sequence (P21554 whole entry I271A): as the sequence (P21554 whole entry H270A) above, with A270H, I271A counted along it
T3 sequence (P21554 whole entry P269A): as the sequence (P21554 whole entry H270A) above, with P269A, A270H counted along it
T2 sequence (P21554 whole entry): as the sequence (P21554 whole entry H270A) above, with A270H counted along it
T1 sequence (P21554 whole entry F268W): as the sequence (P21554 whole entry H270A) above, with F268W, A270H counted along it

Row | SMILES | Ki [1] [nM] | loss in affinity relative to wild-type receptor [1] [fold] | Ki [2] [nM] | Ki [3] [nM] | Ki [4] [nM] | Ki [5] [nM] | loss in affinity relative to wild-type receptor [5] [fold] | binding affinity diminished relative to wild-type receptor (up to) [5] | Ki [6] [nM] | Ki [7] [nM] | Ki [8] [nM] | Ki [9] [nM] | reduced affinity relative to wild-type receptor ([3]; P269A receptor vs WT) [fold] | reduced affinity relative to wild-type receptor ([4]; H270A receptor vs WT) [fold]
1 | CS(=O)(=O)N(c1cc(F)cc(F)c1)C1CN(C(c2ccc(Cl)cc2)c2ccc(Cl)cc2)C1 [AVE1625, N-{1-[bis(4-chloro-phenyl)-methyl]azetidin-3-yl}-N-(3,5-difluorophenyl)methanesulfonamide] | 2.2 | 3 | 0.64 | 0.88 | 1.2 | 1.8 | 3 | – | – | – | – | – | – | –
2 | N#Cc1c(Oc2cccc(OS(=O)(=O)CCCC(F)(F)F)c2)cccc1C(F)(F)F [BAY593074, 3-[2-cyano-3-(trifluoromethyl)phenoxy]phenyl-4,4,4-trifluoro-1-butanesulfonate] | 1860 | – | 249 | 341 | 412 | 2870 | – | up to 12 fold | – | – | – | – | – | –
3 | CCCCCCC(C)(C)c1cc(O)c2c(c1)OC(C)(C)[C@@H]1CC=C(CO)C[C@@H]21 [HU-210, (−)-11-hydroxydimethylheptyl-Δ8-tetrahydrocannabinol] | – | – | – | – | 13.8 | – | – | – | 310 | 3.7 | 1670 | 22.6 | – | –
4 | CCCCC(C)(C)c1cc(O)c2c(c1)OC(C)(C)C1CC=C(C)CC21 (stereo not drawn) [JWH061, 3-(1′,1′-dimethylpentyl)-Δ;8-tetrahydrocannabinol] | 3460 | – | – | 1730 | 373 | 773 | – | – | – | – | – | – | – | –
5 | CC1=CCC2C(C1)c1c(O)cc(C(C)(C)C)cc1OC2(C)C (stereo not drawn) [JWH179, 3-(1′,1′-dimethylethyl)-Δ8-tetrahydrocannabinol] | 1110 | – | – | 798 | 90 | 194 | – | – | – | – | – | – | – | –
6 | O=C(NN1CCCCC1)c1nn(-c2ccc(Cl)cc2Cl)c2c1CCCc1cc(Cl)ccc1-2 [NESS0327] | 21 | 5 | – | 3 | 6.1 | 11.2 | – | – | – | – | – | – | – | –
7 | CCCCCc1ccc(-n2nc(C(=O)NN3CCCCC3)c(C)c2-c2ccc(Cl)cc2)cc1 [O-1255] | 310 | 4 | – | 74.7 | 113 | 460 | 6 | – | – | – | – | – | – | –
8 | CCCCCc1ccc(-c2c(C)c(C(=O)NN3CCCCC3)nn2-c2ccc(Cl)cc2Cl)cc1 [O-1302, [I]N[/I]-(piperidin-1-yl)-1-(2,4-dichlorophenyl)-4-methyl-5-(4-pentylphenyl)-1H-pyrazole-3-carboxamide] | 26.2 | – | – | 1.1 | 2.6 | 38.4 | – | – | – | – | – | – | – | –
9 | CCCCC(C)c1ccc(-c2c(-c3ccc(Cl)cc3Cl)nn(N3CCCCC3)c2C)cc1 (stereo not drawn) [O-1690, N-(N-piperdyl)-3-(2,4-dichlrophenyl)-4-(4′-(1′-methylpentyl)phenyl)-5-methylpyrazole] | 23.3 | – | – | 0.96 | 2 | 77.3 | – | – | – | – | – | – | – | –
10 | CC1=CC[C@@H]2[C@@H](C1)c1ccc(CC#CCCCNS(C)(=O)=O)cc1OC2(C)C [O-2050, (6aR,10aR)-3-(1-methanesulfonylamino-4-hexyn-6-yl)-6a,7, 10,10a-tetrahydro-6,6,9-trimethyl-6H-dibenzo[b,d]pyran] | 148 | 44 | 3.4 | 68.6 | 40.2 | 166 | 49 | – | – | – | – | – | 20 | 12
